How the values were obtained:
Assay type in all cases: functional
Enterococcus = test: Antibacterial activity against vancomycin-resistant Enterococcus ATCC 700221 assessed as inhibition of bacterial growth measured after 24 hrs by MH broth based assay
Proteus = test: Antibacterial activity against Proteus CMCC (B) 49027 assessed as inhibition of bacterial growth measured after 24 hrs by MH broth based assay
Escherichia coli [1] = test: Antibacterial activity against Escherichia coli MG1655 harbouring acrB gene assessed as inhibition of bacterial growth measured after 24 hrs by MH broth based assay
Klebsiella pneumoniae = test: Antibacterial activity against Klebsiella pneumonia CMCC (B) 46117 assessed as inhibition of bacterial growth measured after 24 hrs by MH broth based assay
[2] = test system: Staphylococcus epidermidis; test: Antibacterial activity against methicillin-resistant Staphylococcus epidermidis ATCC 51625 assessed as inhibition of bacterial growth measured after 24 hrs by MH broth based assay
Streptococcus pneumoniae = test: Antibacterial activity against Streptococcus pneumoniae ATCC 49619 assessed as inhibition of bacterial growth measured after 24 hrs by MH broth based assay
Bacillus subtilis = test: Antibacterial activity against Bacillus subtilis ATCC 6633 assessed as inhibition of bacterial growth measured after 24 hrs by MH broth based assay
Escherichia coli [3] = test: Antibacterial activity against Escherichia coli ATCC 25922 assessed as inhibition of bacterial growth measured after 24 hrs by MH broth based assay
Staphylococcus aureus [4] = test: Antibacterial activity against Staphylococcus aureus ATCC 29213 assessed as inhibition of bacterial growth measured after 24 hrs by MH broth based assay
Escherichia coli [5] = test: Antibacterial activity against Escherichia coli MG1655 assessed as inhibition of bacterial growth measured after 24 hrs by MH broth based assay
Staphylococcus aureus [6] = test: Antibacterial activity against methicillin-resistant Staphylococcus aureus ATCC 43300 assessed as inhibition of bacterial growth measured after 24 hrs by MH broth based assay

Row | Structure (SMILES) | MIC (Enterococcus) | MIC (Proteus) | MIC (Escherichia coli [1]) | MIC (Klebsiella pneumoniae) | MIC [2] | MIC (Streptococcus pneumoniae) | MIC (Bacillus subtilis) | MIC (Escherichia coli [3]) | MIC (Staphylococcus aureus [4]) | MIC (Escherichia coli [5]) | MIC (Staphylococcus aureus [6])
1 | C=C[C@]1(C)C[C@@H](OC(=O)CSc2cc[n+](CCCCCCCC(=O)O)cc2)[C@]2(C)[C@H](C)CC[C@]3(CCC(=O)[C@H]32)[C@@H](C)[C@@H]1O.[I-] | 64 µg/mL | > 64 µg/mL | 32 µg/mL | > 64 µg/mL | 4 µg/mL | 2 µg/mL | > 64 µg/mL | > 64 µg/mL | 8 µg/mL | > 64 µg/mL | 8 µg/mL
2 | C=C[C@]1(C)C[C@@H](OC(=O)CSc2cc[n+](Cc3ccc(OC)cc3)cc2)[C@]2(C)[C@H](C)CC[C@]3(CCC(=O)[C@H]32)[C@@H](C)[C@@H]1O.[I-] | 4 µg/mL | > 64 µg/mL | 0.5 µg/mL | 4 µg/mL | 0.031 µg/mL | < 0.031 µg/mL | 16 µg/mL | 64 µg/mL | 0.063 µg/mL | 64 µg/mL | 0.125 µg/mL
3 | C=C[C@]1(C)C[C@@H](OC(=O)CSc2cc[n+](CC#CC)cc2)[C@]2(C)[C@H](C)CC[C@]3(CCC(=O)[C@H]32)[C@@H](C)[C@@H]1O.[I-] | 32 µg/mL | > 64 µg/mL | 1 µg/mL | 64 µg/mL | 0.063 µg/mL | < 0.031 µg/mL | > 64 µg/mL | 64 µg/mL | 0.125 µg/mL | 64 µg/mL | 0.25 µg/mL
4 | C=CC[n+]1ccc(SCC(=O)O[C@@H]2C[C@@](C)(C=C)[C@@H](O)[C@H](C)[C@]34CCC(=O)[C@H]3[C@@]2(C)[C@H](C)CC4)cc1.[I-] | 32 µg/mL | > 64 µg/mL | 1 µg/mL | 64 µg/mL | 0.25 µg/mL | 0.25 µg/mL | 64 µg/mL | 64 µg/mL | 0.5 µg/mL | 64 µg/mL | 1 µg/mL
5 | C=C[C@]1(C)C[C@@H](OC(=O)CSc2cc[n+](CCCCCCCCCCCC)cc2)[C@]2(C)[C@H](C)CC[C@]3(CCC(=O)[C@H]32)[C@@H](C)[C@@H]1O.[I-] | 16 µg/mL | 64 µg/mL | 8 µg/mL | 32 µg/mL | 8 µg/mL | 4 µg/mL | 8 µg/mL | 32 µg/mL | 8 µg/mL | 32 µg/mL | 8 µg/mL
6 | C=C[C@]1(C)C[C@@H](OC(=O)CSc2cc[n+](CCCC)cc2)[C@]2(C)[C@H](C)CC[C@]3(CCC(=O)[C@H]32)[C@@H](C)[C@@H]1O.[I-] | 16 µg/mL | > 64 µg/mL | 0.5 µg/mL | 16 µg/mL | 0.063 µg/mL | < 0.031 µg/mL | 64 µg/mL | 64 µg/mL | 0.25 µg/mL | 64 µg/mL | 0.25 µg/mL
7 | C=C[C@]1(C)C[C@@H](OC(=O)CSc2cc[n+](CCCCCCC(=O)O)cc2)[C@]2(C)[C@H](C)CC[C@]3(CCC(=O)[C@H]32)[C@@H](C)[C@@H]1O.[I-] | 64 µg/mL | 64 µg/mL | 32 µg/mL | 64 µg/mL | 2 µg/mL | 0.5 µg/mL | 64 µg/mL | 64 µg/mL | 0.5 µg/mL | 64 µg/mL | 0.5 µg/mL
8 | C=C[C@]1(C)C[C@@H](OC(=O)CSc2cc[n+](CC(=O)NCCc3ccc(O)cc3)cc2)[C@]2(C)[C@H](C)CC[C@]3(CCC(=O)[C@H]32)[C@@H](C)[C@@H]1O.[I-] | 64 µg/mL | > 64 µg/mL | 1 µg/mL | 32 µg/mL | 0.25 µg/mL | 0.25 µg/mL | > 64 µg/mL | 64 µg/mL | 0.5 µg/mL | 64 µg/mL | 0.5 µg/mL
9 | C#CC[n+]1ccc(SCC(=O)O[C@@H]2C[C@@](C)(C=C)[C@@H](O)[C@H](C)[C@]34CCC(=O)[C@H]3[C@@]2(C)[C@H](C)CC4)cc1.[I-] | 16 µg/mL | > 64 µg/mL | 0.5 µg/mL | 8 µg/mL | 0.031 µg/mL | < 0.031 µg/mL | 32 µg/mL | 64 µg/mL | 0.125 µg/mL | 64 µg/mL | 0.125 µg/mL
10 | C=C[C@]1(C)C[C@@H](OC(=O)CSc2cc[n+](COC)cc2)[C@]2(C)[C@H](C)CC[C@]3(CCC(=O)[C@H]32)[C@@H](C)[C@@H]1O.[I-] | 32 µg/mL | > 64 µg/mL | 1 µg/mL | 64 µg/mL | 0.5 µg/mL | 0.25 µg/mL | 64 µg/mL | 64 µg/mL | 0.25 µg/mL | 64 µg/mL | 0.25 µg/mL
11 | C=C[C@]1(C)C[C@@H](OC(=O)CSc2cc[n+](CCCCCCCCCCC(=O)O)cc2)[C@]2(C)[C@H](C)CC[C@]3(CCC(=O)[C@H]32)[C@@H](C)[C@@H]1O.[I-] | 64 µg/mL | 64 µg/mL | 32 µg/mL | 64 µg/mL | 2 µg/mL | 0.5 µg/mL | 64 µg/mL | 64 µg/mL | 0.5 µg/mL | 64 µg/mL | 0.5 µg/mL
12 | C=C[C@]1(C)C[C@@H](OC(=O)CSc2cc[n+](CCC)cc2)[C@]2(C)[C@H](C)CC[C@]3(CCC(=O)[C@H]32)[C@@H](C)[C@@H]1O.[I-] | 16 µg/mL | 64 µg/mL | 0.5 µg/mL | 32 µg/mL | 0.125 µg/mL | 0.063 µg/mL | 64 µg/mL | 64 µg/mL | 0.25 µg/mL | 64 µg/mL | 0.25 µg/mL
13 | C=C[C@]1(C)C[C@@H](OC(=O)CSc2cc[n+](CCCCCC(=O)O)cc2)[C@]2(C)[C@H](C)CC[C@]3(CCC(=O)[C@H]32)[C@@H](C)[C@@H]1O.[I-] | 64 µg/mL | > 64 µg/mL | 32 µg/mL | > 64 µg/mL | 8 µg/mL | 4 µg/mL | > 64 µg/mL | > 64 µg/mL | 8 µg/mL | 64 µg/mL | 16 µg/mL
14 | C=C[C@]1(C)C[C@@H](OC(=O)CSc2cc[n+](Cc3ccc(C)cc3)cc2)[C@]2(C)[C@H](C)CC[C@]3(CCC(=O)[C@H]32)[C@@H](C)[C@@H]1O.[I-] | 64 µg/mL | > 64 µg/mL | 2 µg/mL | 32 µg/mL | 0.063 µg/mL | < 0.031 µg/mL | > 64 µg/mL | 64 µg/mL | 0.5 µg/mL | 64 µg/mL | 0.5 µg/mL
15 | C=C[C@]1(C)C[C@@H](OC(=O)CSc2cc[n+](CC(=O)N3CCOCC3)cc2)[C@]2(C)[C@H](C)CC[C@]3(CCC(=O)[C@H]32)[C@@H](C)[C@@H]1O.[I-] | 64 µg/mL | > 64 µg/mL | 8 µg/mL | > 64 µg/mL | 8 µg/mL | 4 µg/mL | > 64 µg/mL | > 64 µg/mL | 16 µg/mL | 64 µg/mL | 16 µg/mL
16 | C=C[C@]1(C)C[C@@H](OC(=O)CSc2cc[n+](CC(=O)N3CCC(CO)CC3)cc2)[C@]2(C)[C@H](C)CC[C@]3(CCC(=O)[C@H]32)[C@@H](C)[C@@H]1O.[I-] | 64 µg/mL | > 64 µg/mL | 16 µg/mL | 64 µg/mL | 4 µg/mL | 2 µg/mL | 64 µg/mL | 64 µg/mL | 2 µg/mL | 64 µg/mL | 2 µg/mL
17 | C=C[C@]1(C)C[C@@H](OC(=O)CSc2cc[n+](CCCO)cc2)[C@]2(C)[C@H](C)CC[C@]3(CCC(=O)[C@H]32)[C@@H](C)[C@@H]1O.[I-] | 64 µg/mL | > 64 µg/mL | 0.5 µg/mL | 32 µg/mL | 0.5 µg/mL | 0.25 µg/mL | 64 µg/mL | 64 µg/mL | 1 µg/mL | 64 µg/mL | 1 µg/mL
18 | C=C[C@]1(C)C[C@@H](OC(=O)CSc2cc[n+](CCO)cc2)[C@]2(C)[C@H](C)CC[C@]3(CCC(=O)[C@H]32)[C@@H](C)[C@@H]1O.[I-] | 32 µg/mL | 64 µg/mL | 0.5 µg/mL | 32 µg/mL | 1 µg/mL | 0.5 µg/mL | 64 µg/mL | 64 µg/mL | 1 µg/mL | 64 µg/mL | 1 µg/mL
19 | C=C[C@]1(C)C[C@@H](OC(=O)CSc2cc[n+](CC(=O)O)cc2)[C@]2(C)[C@H](C)CC[C@]3(CCC(=O)[C@H]32)[C@@H](C)[C@@H]1O.[I-] | 64 µg/mL | > 64 µg/mL | 32 µg/mL | > 64 µg/mL | 2 µg/mL | 2 µg/mL | > 64 µg/mL | > 64 µg/mL | 8 µg/mL | > 64 µg/mL | 4 µg/mL
20 | C=CCC[n+]1ccc(SCC(=O)O[C@@H]2C[C@@](C)(C=C)[C@@H](O)[C@H](C)[C@]34CCC(=O)[C@H]3[C@@]2(C)[C@H](C)CC4)cc1.[I-] | 16 µg/mL | 64 µg/mL | 0.25 µg/mL | 16 µg/mL | 0.25 µg/mL | 0.125 µg/mL | 64 µg/mL | 64 µg/mL | 0.25 µg/mL | 32 µg/mL | 0.25 µg/mL
21 | C=C[C@]1(C)C[C@@H](OC(=O)CSc2cc[n+](C(C)C)cc2)[C@]2(C)[C@H](C)CC[C@]3(CCC(=O)[C@H]32)[C@@H](C)[C@@H]1O.[I-] | 64 µg/mL | 64 µg/mL | 2 µg/mL | 64 µg/mL | 2 µg/mL | 1 µg/mL | 64 µg/mL | 64 µg/mL | 0.5 µg/mL | 64 µg/mL | 1 µg/mL

Reference: ChEMBL document CHEMBL5346923, “Novel pyridinium cationic pleuromutilin analogues overcoming bacterial multidrug resistance” (Eur J Med Chem, 2023)
